# Experimental data as given in article PMC4279419, “Angiostatic, tumor inflammatory and anti-tumor effects of CXCL4^47–70 and CXCL4L1^47–70 in an EGF-dependent breast cancer model” (Oncotarget, 2014).
# Where no end group is shown, it is not given here.
# What was measured:
# [1] = test system: CD31-positive vessels of MDA-MB-231 tumors; assay: CD31 immunohistochemistry of resected tumors (vascularization); format: in vivo, mice; details: 2.5 μg intratumoral 3×/week; data not shown
# Description: The impact of peptide treatment on the tumor vasculature was evaluated by quantification of immunohistochemically stained CD31-positive vessels. […] This inconsistency between our observations in vitro and in vivo evokes the question which alternative mechanisms may contribute to the anti-tumoral impact of peptide treatment as evidenced in the MDA-MB-231 tumor model.
# [2] = test system: MDA-MB-231 breast tumors in SCID mice; assay: MDA-MB-231 tumor growth in SCID mice; format: in vivo; details: 2.5 μg intratumoral 3×/week from day 3, mean ± s.e.m., n=10; for tumor volume (external), day 11 / mean tumor volume (external), day 25: calipers; for tumor volume (external), day 11: vehicle 176 ± 56, p<0.001 (CXCL4^47–70), p=0.007 (CXCL4L1^47–70); for mean tumor volume (external), day 25: vehicle 1116 ± 149, p=0.121 (CXCL4L1^47–70); for mean tumor volume (external), day 25 / resected tumor mass, day 27 or 28: p=0.002 (CXCL4^47–70); for resected tumor volume, day 27 or 28: vehicle 845 ± 177, p=0.001 (CXCL4^47–70), p=0.256 (CXCL4L1^47–70); for resected tumor mass, day 27 or 28: vehicle 1464 ± 277, p=0.091 (CXCL4L1^47–70)
# Description: SCID mice were bred in specific-pathogen-free conditions in the Experimental Animal Breeding Facility of the University of Leuven (KU Leuven) and fed sterilized food and water. All animal experiments were conducted in agreement with the Ethical Committee for Animal Care and Use of the KU Leuven and executed under license number LA1210243. 7- to 10-week-old SCID mice were used throughout the experiments. MDA-MB-231 cells in log growth phase (6 × 10^6 cells resuspended in 200 μl of PBS) were injected subcutaneously (s.c.) on day 0 in the right dorsal flank. Animals were treated by intratumoral injection with control, 2.5 μg synthetic human CXCL4^47–70 peptide or synthetic human CXCL4L1^47–70 peptide three times a week starting from day 3. The external tumor volume was measured with calipers thrice a week and calculated using the formula (4πab2)/3 in which a and b are the largest and smallest radius, respectively. On day 27 or 28, mice were sacrificed and tumors were resected. The exact tumor volume of the resected tumor, based on three measured radii (a, b and c), was calculated by the formula (4πabc)/3. A portion of the tumors was stored at −70°C for generation of mRNA extracts and another part was processed for flow cytometry.
# [3] = test system: human retinal microvascular endothelial cells (HMVEC); assay: HMVEC MTT proliferation assay; format: cell-based; details: control PI=1, 3 to 4 days, MTT, mean ± s.e.m.; for Proliferation index (PI), baseline (single stimulus): no growth factor
# Description: (§1) First, HMVEC and HLEC were seeded at 5 × 10^3 cells/well in EBM-2 + 1% FCS in a 96-well plate, whereas MDA-MB-231 were starved of growth factors overnight by replacing their growth medium with DMEM (serum-free) prior to seeding the tumor cells at 15 × 10^2 cells/well in DMEM + 1% FCS. As for the rest of the assay, the same protocol applies to all cells. Once adherent, cells were incubated with different concentrations of the peptides CXCL4^47–70 and CXCL4L1^47–70 as single stimuli or in combination with recombinant human EGF (3 ng/ml; R&D Systems, Minneapolis, MN) at 37°C/5% CO2. All conditions were tested in triplicate or quadruplicate. After 3 to 4 days, stimulation medium was removed and a sterile MTT solution was added [0.04 g/100 ml thiazolyl blue (Sigma-Aldrich, St. Louis, MO) in 20% PBS/80% RPMI without phenol red (Lonza)] for 3 to 4 hours. The formed formasan crystals were dissolved by replacing the MTT solution with acidic propanol (0.04 M HCl, 0.1% (v/v) Nondet P-40 in absolute isopropanol) and shaking the plate, shielded from light, for 10 minutes. Optical density (OD) was determined at 570 nm and 630 nm. The obtained ODs were processed to proliferation indexes (PI), expressed relative to appropriate buffer controls, i.e. ΔOD570–630X over ΔOD570–630CO.
# [4] = test system: bovine aortic endothelial cells (GM7373); assay: GM7373 proliferation assay (cell counting); format: cell-based; details: peptide 0.4 μg/ml, 0.4% FCS, 24 h, cell counts, mean ± s.e.m., n=3; for GM7373 proliferation relative to EGF alone (100%): EGF 10 ng/ml; for GM7373 proliferation relative to FGF2 alone (100%): FGF2 10 ng/ml
# Description: Cell proliferation assays on GM7373 cells were performed as described. Briefly, subconfluent cultures of GM7373 cells were seeded in 96-well dishes at 65 × 10^3 cells/cm^2. After 16 h, cells were incubated in triplicate in fresh medium containing 0.4% FCS plus FGF1 (30 ng/ml), FGF2 (10 ng/ml), FGF8 (30 ng/ml), EGF (10 ng/ml), VEGF (30 ng/ml), 12-O-tetradecanoyl phorbol 13-acetate (TPA, 10 ng/ml) or 10% FCS in the absence or in the presence of 400 ng/ml of CXCL4^47–70 or CXCL4L1^47–70. After 24 h, cells were trypsinized and counted in a Bürker chamber. Data were expressed as percentages of cell proliferation measured in the presence of the mitogenic stimulus alone.
# CHO/CXCR3A cells = assay: CXCR3A binding (flow cytometry); details: NH2-terminally biotinylated peptides, 3 to 3000 ng/ml, data not shown
# Text: We further tried to reveal the mode of action of CXCL4^47–70 and CXCL4L1^47–70. First, we excluded that either peptide still binds/activates one of the CXCR3 isoforms, the receptors for intact CXCL4 and CXCL4L1.
# p21 in HMVEC = assay: Intracellular p21 content in HMVEC (ELISA); format: cell-based, human; details: 15 h, mean ± s.e.m.
# Description: Signaling assays were slightly adapted to the signaling molecules of interest in this study. HMVEC were stimulated with EGF (20 ng/ml) as a single stimulus or in combination with the peptides CXCL4^47–70 and CXCL4L1^47–70 (0.3 to 10 μg/ml) in order to evaluate their impact on the cell cycle-arresting p21. After 15 hours, the cells were washed three times with ice-cold PBS to stop the stimulation and lysis buffer [1 mM EDTA, 0.5% (v/v) Triton-X, 10 mM NaF, 150 mM NaCl, 1 mM DTT in PBS; pH 7.2–7.4] supplemented with a protease inhibitor cocktail (Sigma) was added. Cell residue was removed from the collected lysates by centrifugation (4°C, 10 min, 1666g). Lastly, the intracellular p21 content was determined by DuoSet® IC ELISA (cat n° DYC1047, R&D Systems) while, in parallel, total protein content was measured in a bicinchoninic acid (BCA) protein assay (Pierce, Rockford, IL).
# MDA-MB-231 cells = assay: MDA-MB-231 MTT proliferation assay; format: cell-based, human; details: control PI=1, DMEM + 1% FCS, 3 to 4 days, mean ± s.e.m.
# Description: as §1
# [5] = peptide 0.3 μg/ml + EGF 3 ng/ml, n=7, p=0.015 (CXCL4^47–70), p=0.041 (CXCL4L1^47–70) versus EGF
# [6] = peptide 1 μg/ml + EGF 3 ng/ml, n=7, p=0.003 (CXCL4^47–70), p=0.015 (CXCL4L1^47–70) versus EGF
# [7] = peptide 1 μg/ml, n=8, p=0.011 (CXCL4^47–70), p=0.043 (CXCL4L1^47–70)
# [8] = peptide 3 μg/ml + EGF 3 ng/ml, n=6, p=0.008 (CXCL4^47–70), n=7, p=0.041 (CXCL4L1^47–70) versus EGF
# [9] = peptide 3 μg/ml, n=6, p=0.001 (CXCL4^47–70), n=7, p=0.009 (CXCL4L1^47–70)
# [10] = peptide 3 μg/ml + EGF 20 ng/ml, n=9, p=0.039 (CXCL4^47–70), n=5, p=0.033 (CXCL4L1^47–70) versus EGF
# [11] = peptide 3 μg/ml, n=7 in triplicate, p<0.001
# [12] = peptide 10 μg/ml, in triplicate, n=3, p<0.001 (CXCL4^47–70), n=7, p=0.01 (CXCL4L1^47–70)
Substance,vascularization of resected tumors (CD31-positive vessels) [1],"tumor volume (external), day 11 [2] [mm^3]","mean tumor volume (external), day 25 [2] [mm^3]","resected tumor volume, day 27 or 28 [2] [mm^3]","resected tumor mass, day 27 or 28 [2] [mg]","Proliferation index (PI), EGF-stimulated [3, 5]","Proliferation index (PI), EGF-stimulated [3, 6]","Proliferation index (PI), baseline (single stimulus) [3, 7]","Proliferation index (PI), EGF-stimulated [3, 8]","Proliferation index (PI), baseline (single stimulus) [3, 9]",GM7373 proliferation relative to EGF alone (100%) [4] [%],GM7373 proliferation relative to FGF2 alone (100%) [4] [%],specific binding to CHO/CXCR3A (CHO/CXCR3A cells),"intracellular p21 relative to control (100%), with EGF (p21 in HMVEC; [10]) [%]",Proliferation index (PI) (MDA-MB-231 cells; [11]),Proliferation index (PI) (MDA-MB-231 cells; [12]),"Proliferation index (PI) (MDA-MB-231 cells; peptide 30 μg/ml, n=3 in triplicate, p<0.001)","intracellular p21 relative to control (100%), with EGF (p21 in HMVEC; peptide 1 μg/ml + EGF 20 ng/ml, n=6, p=0.039 versus EGF) [%]","intracellular p21 relative to control (100%), with EGF (p21 in HMVEC; peptide 10 μg/ml + EGF 20 ng/ml, n=5, p=0.005 versus EGF) [%]","Proliferation index (PI) (MDA-MB-231 cells; peptide 0.3 μg/ml, n=7 in triplicate, p=0.023)"
"CXCL4L1^47–70: synthetic human carboxy-terminal peptide restricted to the last 24 amino acids of CXCL4L1, Fmoc chemistry","neither CXCL4^47–70, nor CXCL4L1^47–70 was reflected by a reduced vascularization",61 ± 23,719 ± 153,647 ± 161,953 ± 208,1.17 ± 0.06,1.05 ± 0.07,0.86 ± 0.12,0.98 ± 0.13,0.70 ± 0.09,49 ± 1,47 ± 4,could not detect specific binding,115.06 ± 17.41,0.78 ± 0.04,0.76 ± 0.08,0.26 ± 0.04,,,
"CXCL4^47–70: synthetic human carboxy-terminal peptide restricted to the last 24 amino acids of CXCL4, Fmoc chemistry (NGRKICLDLQAPLYKKIIKKLLES; not fully specified (N-terminus))","neither CXCL4^47–70, nor CXCL4L1^47–70 was reflected by a reduced vascularization",24 ± 6,438 ± 97,308 ± 61,523 ± 108,1.13 ± 0.07,0.96 ± 0.06,0.77 ± 0.08,0.93 ± 0.07,0.59 ± 0.09,74 ± 3,28 ± 10,could not detect specific binding,100.02 ± 8.67,0.66 ± 0.04,0.21 ± 0.05,,106.90 ± 15.12,125.51 ± 15.05,0.87 ± 0.04
